# Read-outs that look alike come from different tables or passages of the source.
# Tests used:
# [1] = mouse, in vivo
# Description: (§1) (2) After tumor formation, the mice were divided into four experimental groups, namely, a blank control, a roflumilast group, a sodium ascorbate group, and a roflumilast+sodium ascorbate group. The mice in the roflumilast+sodium ascorbate group were intraperitoneally injected with roflumilast at 4 mg/kg and intravenously injected with sodium ascorbate at 1.5 g/kg every three days, for 5 administrations. At the same time, the roflumilast group and the sodium ascorbate group were separately injected with roflumilast and sodium ascorbate at the same dose in the same way; and normal saline was injected at the same dose in the blank control. The day of the first injection was taken as Day 1, and then the mice were tested and recorded in terms of body weight and tumor size: tumor volume (mm^3)=length (L) ×width (W) 2/2. Luciferin fluorescence imaging was conducted on tumors. That is, a 1 mg/mL D-luciferin potassium aqueous solution was formulated; each mouse was intraperitoneally injected with 100 μL of the D-luciferin potassium aqueous solution, and 10 minutes after injection, was subjected to luciferin fluorescence imaging with a small animal in vivo imager (Model: IVIS Lumina XRMS Series III).
# [2] = Body weight of tumor-bearing mice (Example 1); settings: roflumilast 4 mg/kg i.p., sodium ascorbate 1.5 g/kg i.v., every three days, 5 administrations; compared with the control
# Description: as §1
Structure (SMILES),effect on the body weight of mice [1],effect on the body weight of mice [2]
O=C(Nc1c(Cl)cncc1Cl)c1ccc(OC(F)F)c(OCC2CC2)c1 [roflumilast],no effect on the body weight of mice,
O=C1O[C@H]([C@@H](O)CO)C([O-])=C1O.[Na+] [sodium ascorbate],,no effect on the body weight of mice

# — patent US20230338345A1, “DRUG COMBINATION AND USE THEREOF” (NATURAL MEDICINE INSTITUTE OF ZHEJIANG YANGSHENGTANG CO., …, priority 2020, published 2023)
